In US8158139B2 (priority 2004, dated 2012):

experiment: Flash point of solvents, closed cup method; type: physicochemical
Source text: In one embodiment, the formulation contains a mixture of organic solvent and isopropyl alcohol.

| Structure (SMILES) | flash point [°C] |
| --- | --- |
| CCO [ethyl alcohol] | 14 |
| CC(C)O [isopropyl alcohol] | 11.7 |
| OCc1ccccc1 [benzyl alcohol] | 100.6 |
| CC(O)CO (centres unmarked) [propylene glycol] | 99 |
| C=C(C)[C@H]1CC=C(C)CC1 [dipentene] | 46 |
